Test results published in patent US8828696B2, “Use of Penicillin G Procaine as a selective antimicrobial agent in the production of alcohol by fermentation” (Lallemand Specialites, Inc, priority 2008, dated 2014).
Like-named read-outs stand apart in the source and are kept apart here.

Test system: Saccharomyces cerevisiae yeast
Format: cell-based
Method: A study was conducted to determine the degree of impact of the fermentation antimicrobial Penicillin G Procaine and Penicillin G potassium during alcohol production by fermentation. The antimicrobial impact was inferred by conducting a series of fermentations and measuring if the above said antibiotics interfered with the cell growth and the fermentation function of Saccharomyces cerevisiae yeast used in the fermentation phase. This study provided analysis of what impact, if any, the Penicillin G Procaine or Penicillin G Potassium has on the yeast during lab scale fermentations, specifically BioFerm® XR yeast from North American Bioproducts Corporation (NABC). This study observed the ability of yeast to replicate and ferment a corn mash substrate with and without the presence of Penicillin G Procaine or Penicillin G Potassium.
This study was set up in a series of fermentation vessels. All antibiotic concentrations were tested in triplicate. Cell counts were done on one flask for each treatment at 12, 24, 36 and 48 hours and testing of the fermentation reactions by HPLC was also performed at 12, 24, 36 and 48 hours. The experiment was set as follows:
1. Antibiotic solutions were prepared to provide a sterile 1 and 10 μg/ml solutions.
2. Antibiotic solutions tested were as follows:
3. Fermentations were set up using 31% solids corn mash using saccharifying enzymes and the following procedure:
A. Yeast Conditioning: • 1. Add 2 g yeast to 10 ml sterile water for each 3 flasks to test, (14 g yeast to 70 ml water) into a sterile 250 ml flask and place in water bath set to 100° F. • 2. Incubate at 100° F. for 30 minutes with occasional mixing. • 3. Remove flasks from water bath and divide suspension between the all flasks for the trial.
B. Fermentation Procedure • 1. To prepared mash, add the following. • a. Add 0.58 g urea/liter mash and mix. • b. Add 0.2 ml GA per liter and mix. • 2. Remove sample for background HPLC testing. • 3. Add antibiotic solution to labeled sterile 250 ml flasks. • 4. Add hydrated yeast suspension to mash and mix well. • 5. Add sterile stir bar to each flask and add about 150 ml mash into each 250 ml flask for a total of 21 flasks. • 6. Cover each flask with a gas trap in a sterilized stopper. • 7. Place in a 33° C. water bath with continuous mixing at 280 rpm at 75% power. • 8. Remove sample at 12 hr interval to perform cell count, viability and budding. • 9. Incubate sample up to 48 hours, enough time for complete fermentation • 10. Collect samples at the following times for cell counts and HPLC testing: 12 hours; 24 hours; 36 hours and 48 hours

[1] = 5 ppm, 12 hours, total cell count x % viability
[2] = 5 ppm, 12 hr fermentation sample
[3] = 5 ppm, 24 hours, total cell count x % viability
[4] = 5 ppm, 24 hr fermentation sample
[5] = 5 ppm, 36 hours, total cell count x % viability
[6] = 5 ppm, 36 hr fermentation sample
[7] = 5 ppm, 48 hours, total cell count x % viability
[8] = 5 ppm, 48 hr fermentation sample
[9] = 5 ppm, average of 12, 24, 36 and 48 hour samples
[10] = 15 ppm, 12 hours, total cell count x % viability
[11] = 15 ppm, 12 hr fermentation sample
[12] = 15 ppm, 24 hours, total cell count x % viability
[13] = 15 ppm, 24 hr fermentation sample
[14] = 15 ppm, 36 hours, total cell count x % viability
[15] = 15 ppm, 36 hr fermentation sample
[16] = 15 ppm, 48 hours, total cell count x % viability
[17] = 15 ppm, 48 hr fermentation sample
[18] = 15 ppm, average of 12, 24, 36 and 48 hour samples
[19] = 30 ppm, 12 hours, total cell count x % viability
[20] = 30 ppm, 12 hr fermentation sample
[21] = 30 ppm, 24 hours, total cell count x % viability
[22] = 30 ppm, 24 hr fermentation sample
[23] = 30 ppm, 36 hours, total cell count x % viability
[24] = 30 ppm, 36 hr fermentation sample
[25] = 30 ppm, 48 hours, total cell count x % viability
[26] = 30 ppm, 48 hr fermentation sample
[27] = 30 ppm, average of 12, 24, 36 and 48 hour samples
[28] = average for all three trials (5, 15, 30 ppm), 12-48 hour samples
[29] = average for all three trials (5, 15, 30 ppm), 12 hours
[30] = average for all three trials (5, 15, 30 ppm), 24 hours
[31] = average for all three trials (5, 15, 30 ppm), 36 hours
[32] = average for all three trials (5, 15, 30 ppm), 48 hours
[33] = average for all three trials (5, 15, 30 ppm), Average 12-48 hours

**Q.** How did the “viable yeast cell count” value [1] turn out when `CC1(C)S[C@@H]2[C@H](NC(=O)Cc3ccccc3)C(=O)N2[C@H]1C(=O)[O-].[K+]` [Penicillin G Potassium] was run?
**A.** 510

**Q.** What about the “% B (% budding)” value [2] of the same compound?
**A.** 13.8%

**Q.** What about the “% V (% viability)” value [2] of the same compound?
**A.** 88%

**Q.** And the “CC (cell count)” value [2]?
**A.** 580

**Q.** And the “viable yeast cell count” value [3]?
**A.** 500

**Q.** And the “% B (% budding)” value [4]?
**A.** 8.4%

**Q.** What about the “% V (% viability)” value [4] of the same compound?
**A.** 90%

**Q.** What about the “CC (cell count)” value [4] of the same compound?
**A.** 556

**Q.** And the “viable yeast cell count” value [5]?
**A.** 421

**Q.** What about the “% B (% budding)” value [6] of the same compound?
**A.** 8.1%

**Q.** And the “% V (% viability)” value [6]?
**A.** 81%

**Q.** And the “CC (cell count)” value [6]?
**A.** 520

**Q.** What about the “viable yeast cell count” value [7] of the same compound?
**A.** 381

**Q.** What about the “% B (% budding)” value [8] of the same compound?
**A.** 8.9%

**Q.** And the “% V (% viability)” value [8]?
**A.** 75%

**Q.** And the “CC (cell count)” value [8]?
**A.** 508

**Q.** What about the “viable yeast cell count” value (5 ppm, Average 12-48 hours) of the same compound?
**A.** 453

**Q.** What about the “A % B (average % budding)” value [9] of the same compound?
**A.** 9.8%

**Q.** And the “A % V (average % viability)” value [9]?
**A.** 83.5%

**Q.** And the “ACC (average cell count)” value [9]?
**A.** 541

**Q.** What about the “viable yeast cell count” value [10] of the same compound?
**A.** 469

**Q.** And the “% B (% budding)” value [11]?
**A.** 13.3%

**Q.** What about the “% V (% viability)” value [11] of the same compound?
**A.** 85%

**Q.** What about the “CC (cell count)” value [11] of the same compound?
**A.** 552

**Q.** And the “viable yeast cell count” value [12]?
**A.** 465

**Q.** And the “% B (% budding)” value [13]?
**A.** 7.5%

**Q.** What about the “% V (% viability)” value [13] of the same compound?
**A.** 86%

**Q.** What about the “CC (cell count)” value [13] of the same compound?
**A.** 541

**Q.** What about the “viable yeast cell count” value [14] of the same compound?
**A.** 435

**Q.** And the “% B (% budding)” value [15]?
**A.** 6.2%

**Q.** What about the “% V (% viability)” value [15] of the same compound?
**A.** 82%

**Q.** And the “CC (cell count)” value [15]?
**A.** 530

**Q.** And the “viable yeast cell count” value [16]?
**A.** 372

**Q.** What about the “% B (% budding)” value [17] of the same compound?
**A.** 7.3%

**Q.** And the “% V (% viability)” value [17]?
**A.** 72%

**Q.** And the “CC (cell count)” value [17]?
**A.** 516

**Q.** What about the “viable yeast cell count” value (15 ppm, Average 12-48 hours) of the same compound?
**A.** 435

**Q.** What about the “A % B (average % budding)” value [18] of the same compound?
**A.** 8.6%

**Q.** What about the “A % V (average % viability)” value [18] of the same compound?
**A.** 81.3%

**Q.** And the “ACC (average cell count)” value [18]?
**A.** 535

**Q.** What about the “viable yeast cell count” value [19] of the same compound?
**A.** 535

**Q.** And the “% B (% budding)” value [20]?
**A.** 12.3%

**Q.** What about the “% V (% viability)” value [20] of the same compound?
**A.** 86%

**Q.** What about the “CC (cell count)” value [20] of the same compound?
**A.** 622

**Q.** And the “viable yeast cell count” value [21]?
**A.** 462

**Q.** What about the “% B (% budding)” value [22] of the same compound?
**A.** 8.7%

**Q.** And the “% V (% viability)” value [22]?
**A.** 88%

**Q.** And the “CC (cell count)” value [22]?
**A.** 525

**Q.** And the “viable yeast cell count” value [23]?
**A.** 401

**Q.** And the “% B (% budding)” value [24]?
**A.** 8.7%

**Q.** And the “% V (% viability)” value [24]?
**A.** 80%

**Q.** And the “CC (cell count)” value [24]?
**A.** 501

**Q.** And the “viable yeast cell count” value [25]?
**A.** 393

**Q.** And the “% B (% budding)” value [26]?
**A.** 6.4%

**Q.** What about the “% V (% viability)” value [26] of the same compound?
**A.** 77%

**Q.** And the “CC (cell count)” value [26]?
**A.** 511

**Q.** What about the “viable yeast cell count” value (30 ppm, Average 12-48 hours) of the same compound?
**A.** 448

**Q.** What about the “A % B (average % budding)” value [27] of the same compound?
**A.** 9.0%

**Q.** And the “A % V (average % viability)” value [27]?
**A.** 82.8%

**Q.** What about the “ACC (average cell count)” value [27] of the same compound?
**A.** 540

**Q.** What about the “A % B (average % budding)” value [28] of the same compound?
**A.** 9.1%

**Q.** What about the “A % V (average % viability)” value [28] of the same compound?
**A.** 82.5%

**Q.** And the “ACC (average cell count)” value [28]?
**A.** 539

**Q.** What about the “viable yeast cell count” value [29] of the same compound?
**A.** 505

**Q.** What about the “viable yeast cell count” value [30] of the same compound?
**A.** 476

**Q.** What about the “viable yeast cell count” value [31] of the same compound?
**A.** 419

**Q.** And the “viable yeast cell count” value [32]?
**A.** 382

**Q.** And the “viable yeast cell count” value [33]?
**A.** 445

**Q.** What does the source list for `CC1(C)S[C@@H]2[C@H](NC(=O)Cc3ccccc3)C(=O)N2[C@H]1C(=O)O.CCN(CC)CCOC(=O)c1ccc(N)cc1` [Penicillin G Procaine]?
**A.** viable yeast cell count [1]: 535; % B (% budding) [2]: 15.0%; % V (% viability) [2]: 89%; CC (cell count) [2]: 601; viable yeast cell count [3]: 489; % B (% budding) [4]: 7.9%; % V (% viability) [4]: 88%; CC (cell count) [4]: 556; viable yeast cell count [5]: 432; % B (% budding) [6]: 9.2%; % V (% viability) [6]: 83%; CC (cell count) [6]: 521; viable yeast cell count [7]: 404; % B (% budding) [8]: 8.0%; % V (% viability) [8]: 75%; CC (cell count) [8]: 538; viable yeast cell count (5 ppm, Average 12-48 hours): 465; A % B (average % budding) [9]: 10.0%; A % V (average % viability) [9]: 83.8%; ACC (average cell count) [9]: 554; viable yeast cell count [10]: 494; % B (% budding) [11]: 17.7%; % V (% viability) [11]: 86%; CC (cell count) [11]: 574; viable yeast cell count [12]: 528; % B (% budding) [13]: 7.8%; % V (% viability) [13]: 91%; CC (cell count) [13]: 580; viable yeast cell count [14]: 410; % B (% budding) [15]: 7.3%; % V (% viability) [15]: 78%; CC (cell count) [15]: 526; viable yeast cell count [16]: 385; % B (% budding) [17]: 9.0%; % V (% viability) [17]: 74%; CC (cell count) [17]: 520; viable yeast cell count (15 ppm, Average 12-48 hours): 454; A % B (average % budding) [18]: 10.4%; A % V (average % viability) [18]: 82.3%; ACC (average cell count) [18]: 550; viable yeast cell count [19]: 528; % B (% budding) [20]: 14.8%; % V (% viability) [20]: 85%; CC (cell count) [20]: 621; viable yeast cell count [21]: 496; % B (% budding) [22]: 10.3%; % V (% viability) [22]: 89%; CC (cell count) [22]: 557; viable yeast cell count [23]: 400; % B (% budding) [24]: 7.0%; % V (% viability) [24]: 78%; CC (cell count) [24]: 513; viable yeast cell count [25]: 385; % B (% budding) [26]: 6.0%; % V (% viability) [26]: 78%; CC (cell count) [26]: 493; viable yeast cell count (30 ppm, Average 12-48 hours): 452; A % B (average % budding) [27]: 9.5%; A % V (average % viability) [27]: 82.5%; ACC (average cell count) [27]: 546; A % B (average % budding) [28]: 10.0%; A % V (average % viability) [28]: 82.8%; ACC (average cell count) [28]: 550; viable yeast cell count [29]: 519; viable yeast cell count [30]: 504; viable yeast cell count [31]: 414; viable yeast cell count [32]: 391; viable yeast cell count [33]: 457
